{"source": "patent US8697656B2", "about": "“Compounds, in particular peptides, compositions comprising them and cosmetic and dermo-pharmaceutical uses” (SEDERMA, priority 2009, dated 2014)", "key": {"[1]": {"system": "dermal NHF", "experiment": "Immunostaining method for collagen I on dermal NHF (Table 7)", "format": "cell-based, human", "conditions": "Table 7 Test 2", "source_text": "Table 7 Showing % Differences in Collagen I in the Dermis Compared to the Control for Dioxygenated Peptide Compounds According to the Immunostaining Method or to ELISA Test on Dermal NHF"}, "[2]": {"system": "Normal human dermal fibroblasts (NHF)", "experiment": "ELISA test on normal human dermal fibroblasts (NHF): macromolecules in culture supernatants", "format": "cell-based", "conditions": "Table 7 Test 1", "procedure": "ELISA Test on Normal Human Dermal Fibroblasts (NHF)\nThis test examines the dermal molecules.\nNormal human dermal fibroblasts are cultured in multi-well plates. The cells either are or are not placed in contact with the test substances for 3 days. The culture supernatants are removed and the quantity of macromolecules present (collagen I, fibronectin, collagen IV and hyaluronic acid) is assayed by ELISA."}}, "note": "Non-standard residues stand in square brackets, D forms with d. Residues, ends and D or L forms follow the SMILES beside them. *: point of attachment. Met(O2) = CS(=O)(=O)CC[CH](N)C(=O)O; Palmitoyl = CCCCCCCCCCCCCCCC(=O)*; Ava = NCCCCC(=O)O", "data": [{"compound": "CCCCCCCCCCCCCCCC(=O)NC(CCS(C)(=O)=O)C(=O)NCCCCC(N)=O", "note": "(stereo not shown) [Pal-MO2-Ava-NH2]", "values": [{"measurement": "Collagen I in the dermis, Test 2 (% difference compared to the control)", "setting": "[1]; 2 ppm", "result": "+375%"}, {"measurement": "Collagen I in the dermis, Test 2 (% difference compared to the control)", "setting": "[1]; 4 ppm", "result": "+582%"}, {"measurement": "Collagen I in the dermis, Test 2 (% difference compared to the control)", "setting": "[1]; 6 ppm", "result": "+461%"}]}, {"compound": "Pal-K-T-MO2-K-OH: Dioxygenated peptide compound, SEQ ID NO 30 (Palmitoyl-KT[Met(O2)]K-OH; SMILES CCCCCCCCCCCCCCCC(=O)N[C@@H](CCCCN)C(=O)N[C@H](C(=O)N[C@@H](CCS(C)(=O)=O)C(=O)N[C@@H](CCCCN)C(=O)O)[C@@H](C)O)", "values": [{"measurement": "Collagen I in the dermis, Test 1 (% difference compared to the control)", "setting": "[2]; 4 ppm", "result": "+75%"}, {"measurement": "Collagen I in the dermis, Test 1 (% difference compared to the control)", "setting": "[2]; 6 ppm", "result": "+161%"}, {"measurement": "Collagen I in the dermis, Test 2 (% difference compared to the control)", "setting": "[1]; 2 ppm", "result": "+273%"}, {"measurement": "Collagen I in the dermis, Test 2 (% difference compared to the control)", "setting": "[1]; 4 ppm", "result": "+341%"}, {"measurement": "Collagen I in the dermis, Test 2 (% difference compared to the control)", "setting": "[1]; 6 ppm", "result": "+262%"}]}, {"compound": "Pal-K-MO2-T-K-OH: Dioxygenated peptide compound, SEQ ID NO 33 (Palmitoyl-K[Met(O2)]TK-OH; SMILES CCCCCCCCCCCCCCCC(=O)N[C@@H](CCCCN)C(=O)N[C@@H](CCS(C)(=O)=O)C(=O)N[C@H](C(=O)N[C@@H](CCCCN)C(=O)O)[C@@H](C)O)", "values": [{"measurement": "Collagen I in the dermis, Test 1 (% difference compared to the control)", "setting": "[2]; 4 ppm", "result": "+45%"}, {"measurement": "Collagen I in the dermis, Test 1 (% difference compared to the control)", "setting": "[2]; 6 ppm", "result": "+194%"}, {"measurement": "Collagen I in the dermis, Test 2 (% difference compared to the control)", "setting": "[1]; 4 ppm", "result": "+192%"}, {"measurement": "Collagen I in the dermis, Test 2 (% difference compared to the control)", "setting": "[1]; 6 ppm", "result": "+217%"}]}, {"compound": "Pal-K-F-MO2-K-OH: Dioxygenated peptide compound, SEQ ID NO 31 (Palmitoyl-KF[Met(O2)]K-OH; SMILES CCCCCCCCCCCCCCCC(=O)N[C@@H](CCCCN)C(=O)N[C@@H](Cc1ccccc1)C(=O)N[C@@H](CCS(C)(=O)=O)C(=O)N[C@@H](CCCCN)C(=O)O)", "values": [{"measurement": "Collagen I in the dermis, Test 1 (% difference compared to the control)", "setting": "[2]; 4 ppm", "result": "+80%"}, {"measurement": "Collagen I in the dermis, Test 1 (% difference compared to the control)", "setting": "[2]; 6 ppm", "result": "+81%"}]}, {"compound": "Pal-K-Ava-MO2-K-OH: Dioxygenated peptide compound, SEQ ID NO 35 (Palmitoyl-K[Ava][Met(O2)]K-OH; SMILES CCCCCCCCCCCCCCCC(=O)N[C@@H](CCCCN)C(=O)NCCCCC(=O)N[C@@H](CCS(C)(=O)=O)C(=O)N[C@@H](CCCCN)C(=O)O)", "values": [{"measurement": "Collagen I in the dermis, Test 1 (% difference compared to the control)", "setting": "[2]; 2 ppm", "result": "+63%"}, {"measurement": "Collagen I in the dermis, Test 1 (% difference compared to the control)", "setting": "[2]; 4 ppm", "result": "+167%"}]}, {"compound": "CCCCCCCCCCCCCCCC(=O)NCCCCC(=O)NC(CCS(C)(=O)=O)C(N)=O", "note": "(stereo not drawn) [Pal-Ava-MO2-NH2]", "values": [{"measurement": "Collagen I in the dermis, Test 2 (% difference compared to the control)", "setting": "[1]; 2 ppm", "result": "+495%"}, {"measurement": "Collagen I in the dermis, Test 2 (% difference compared to the control)", "setting": "[1]; 4 ppm", "result": "+667%"}, {"measurement": "Collagen I in the dermis, Test 2 (% difference compared to the control)", "setting": "[1]; 6 ppm", "result": "+557%"}]}, {"compound": "CCCCCCCCCCCCCCCC(=O)NC(CCS(C)(=O)=O)C(=O)NC(CCCCN)C(=O)O", "note": "(stereo not shown) [Pal-MO2-K-OH] (Palmitoyl-[Met(O2)]-Lys-OH; configuration not given here)", "values": [{"measurement": "Collagen I in the dermis, Test 2 (% difference compared to the control)", "setting": "[1]; 2 ppm", "result": "+270%"}, {"measurement": "Collagen I in the dermis, Test 2 (% difference compared to the control)", "setting": "[1]; 4 ppm", "result": "+457%"}, {"measurement": "Collagen I in the dermis, Test 2 (% difference compared to the control)", "setting": "[1]; 6 ppm", "result": "+226%"}]}, {"compound": "Pal-MO2-T-K-F-OH: Dioxygenated peptide compound, SEQ ID NO 29", "values": [{"measurement": "Collagen I in the dermis, Test 1 (% difference compared to the control)", "setting": "[2]; 4 ppm", "result": "+111%"}, {"measurement": "Collagen I in the dermis, Test 1 (% difference compared to the control)", "setting": "[2]; 6 ppm", "result": "+148%"}, {"measurement": "Collagen I in the dermis, Test 2 (% difference compared to the control)", "setting": "[1]; 2 ppm", "result": "+218%"}, {"measurement": "Collagen I in the dermis, Test 2 (% difference compared to the control)", "setting": "[1]; 4 ppm", "result": "+456%"}, {"measurement": "Collagen I in the dermis, Test 2 (% difference compared to the control)", "setting": "[1]; 6 ppm", "result": "+520%"}]}, {"compound": "Pal-K-MO2-Ava-K-OH: Dioxygenated peptide compound, SEQ ID NO 36 (Palmitoyl-K[Met(O2)][Ava]K-OH; SMILES CCCCCCCCCCCCCCCC(=O)N[C@@H](CCCCN)C(=O)N[C@@H](CCS(C)(=O)=O)C(=O)NCCCCC(=O)N[C@@H](CCCCN)C(=O)O)", "values": [{"measurement": "Collagen I in the dermis, Test 1 (% difference compared to the control)", "setting": "[2]; 2 ppm", "result": "+75%"}]}, {"compound": "Pal-K-T-F-MO2-NH2: Dioxygenated peptide compound, SEQ ID NO 32 (Palmitoyl-KTF[Met(O2)]-NH2; SMILES CCCCCCCCCCCCCCCC(=O)N[C@@H](CCCCN)C(=O)N[C@H](C(=O)N[C@@H](Cc1ccccc1)C(=O)N[C@@H](CCS(C)(=O)=O)C(N)=O)[C@@H](C)O)", "values": [{"measurement": "Collagen I in the dermis, Test 1 (% difference compared to the control)", "setting": "[2]; 4 ppm", "result": "+106%"}, {"measurement": "Collagen I in the dermis, Test 1 (% difference compared to the control)", "setting": "[2]; 6 ppm", "result": "+121%"}, {"measurement": "Collagen I in the dermis, Test 2 (% difference compared to the control)", "setting": "[1]; 2 ppm", "result": "+267%"}, {"measurement": "Collagen I in the dermis, Test 2 (% difference compared to the control)", "setting": "[1]; 4 ppm", "result": "+420%"}, {"measurement": "Collagen I in the dermis, Test 2 (% difference compared to the control)", "setting": "[1]; 6 ppm", "result": "+400%"}]}, {"compound": "Pal-K-MO2-F-K-OH: Dioxygenated peptide compound, SEQ ID NO 34 (Palmitoyl-K[Met(O2)]FK-OH; SMILES CCCCCCCCCCCCCCCC(=O)N[C@@H](CCCCN)C(=O)N[C@@H](CCS(C)(=O)=O)C(=O)N[C@@H](Cc1ccccc1)C(=O)N[C@@H](CCCCN)C(=O)O)", "values": [{"measurement": "Collagen I in the dermis, Test 1 (% difference compared to the control)", "setting": "[2]; 4 ppm", "result": "+91%"}]}]}
